Test results taken from PMC8642539, “The novel BET inhibitor UM-002 reduces glioblastoma cell proliferation and invasion” (Scientific Reports, 2021).
Like-named read-outs stand apart in the source and are kept apart here.

Columns and labels:
[1] = parameters: method as in PMID 26392221; conditions: cited from earlier work
[2] = test system: GBM22 cells; assay: In vitro dose response, CellTiter-Glo ATP, GBM22; format: cell-based; conditions: Homo sapiens, 72 h
Protocol: (§1) Figure 1 UM-002 reduces GBM cell proliferation in vitro. (A) Structure of UM-002. […] Reduction in ATP levels was measured using CellTiter-Glo after 72 h of compound treatment and luminescence was normalized to the positive control. Dose response curves were calculated using a variable slope (4 parameters) fit. EC50 and the percentage of positive control at EC50 was calculated for each compound.
(§2) The patient derived xenograft (PDX) glioblastoma cell lines, GBM22 and GBM39, were obtained from the Mayo Clinic Brain Tumor PDX national resource. Cells were cultured as previously described[39],[40]. Since genetic drift is known to occur with passage in vivo and in vitro, a stock of early passage tumor tissue is maintained in storage and xenograft lines are passaged a maximum of 20 times before restoration from early passage tissue. […]
(§3) PDX cells were plated at 3000 cells/well in a 384 well flat bottom plate, and adherent cultures were established overnight. […] Following a 72-h incubation, CellTiter-Glo (Promega, Wisconsin, USA) was used to measure ATP content and luminescence was read on an EnVision plate reader, as previously described. Luminescence was normalized to 10 µM Velcade as a positive control, and 0.1% DMSO as a negative control. Dose response curves were calculated in GraphPad PRISM (version 8.4.3) using a variable slope (four parameter) fit.

[3] = test system: GBM39 cells; assay: In vitro dose response, CellTiter-Glo ATP, GBM39; format: cell-based; conditions: Homo sapiens
Protocol: as §1, §2, §3

[4] = test system: GBM22 cells; assay: Cerebral brain organoid-GBM co-culture, proliferation and invasion; format: cell-based, human; conditions: 9 days co-culture; JQ1 500 nM, MK-8628 1000 nM, UM-002 100 nM
Source text: On day 0 of organoid production, induced pluripotent stem cells (iPSCs), at ~ 80% confluence, were dissociated into small clumps with gentle cell dissociation reagent (StemCell Technologies, 07174) and plated into round-bottom, low-attachment 96 well plates (ThermoFisher, 174925; ~ 15,000 cells per well). Initial media, consisting of mTeSR Plus (Stem Cell Technologies, 05825) supplemented with 5 µm A-83 (Peprotech, 9094360) and 5 µm Dorsomorphin (Peprotech, 8666430), was replaced every other day starting at day 2 by removing half of the media in each well (100 µL) and replacing with fresh media three times. On day 8, media was changed to a base media of Neurobasal A media (Gibco, 10888022) with NeuroCult SM1 (StemCell Technologies, 05711), glutamax (Gibco, 35050061), and Pen/strep (Gibco, 15140122) supplemented with EGF (20 ng/ml; Alomone Labs, E-100) and FGF2 (20 ng/ml; Alomone Labs, F-170). Media was similarly exchanged every other day until day 20 when the mitogenic supplements were exchanged for differentiating factors: BDNF (20 ng/ml; Alomone Labs, B-250) and NT3 (20 ng/ml; Alomone Labs, N-260) in the same base media. After two weeks in differentiation media, organoids could be maintained in the base media for > 100 days[41]. […]

[5] = test system: cerebral brain organoids; assay: Brain organoid viability (organoid volume and surface area) in co-culture; format: cell-based, human; conditions: 9 days; JQ1 500 nM, MK-8628 1000 nM, UM-002 100 nM
Protocol: GBM22 cells were dissociated into a single cell suspension with Trypsin (Gibco, 15,400,054) and seeded (17,500 cells/well) into round-bottom, low-attachment 96-well plates containing a single mature organoid per well. Cells were seeded by removing 100 µL of media and replacing with 100 µL of cell suspension. GBM cells were allowed to settle around the organoid and attach overnight. After 24 h (day 1 of co-culturing) organoids were either fixed (see below) and stored in PBS as an untreated control or treated with compounds. For treatment, compounds were dissolved in DMSO and diluted in organoid maintenance media. […] On the first day of treatment, organoids were treated by removing half of the media (100 µL) and replacing with 100 µL of a 2 × compound solution. Compounds were renewed with 1 × solutions in the new media every other day following the normal media replacement regimen until the conclusion of the experiment.
Statistical comparisons performed using an unpaired, two-tailed t test or one-way ANOVA with Tukey HSD post-hoc.

[6] = test system: recurrent GBM; parameters: method as in doi:10.1200/JCO.2016.34.15_suppl.e14123; conditions: 12 recurrent GBM patients, study terminated; cited from earlier work

SMILES	Phenotype in mice [1]	EC50 ([2]; read-out: GBM22 logEC50 (converted)) [nM]	EC50 ([2]; CellTiter-Glo, 4 parameter fit, read-out: GBM22 EC50) [nM]	EC50 ([3]; GBM39, 72 h, read-out: GBM39 logEC50 (converted)) [nM]	EC50 ([3]; GBM39, 72 h, CellTiter-Glo, 4 parameter fit, read-out: GBM39 EC50) [nM]	Number of invading GBM cells relative to DMSO control [4]	Total number of GBM cells relative to DMSO control [4]	Brain organoid viability, as determined by organoid volume and surface area [5]	Progression-free survival [6]
CC(=O)N1c2ccc(-c3ccc(CN4CCCCC4)cc3)cc2[C@H](Nc2ccccc2)C[C@H]1C [I-BET858]	autism spectrum disorder phenotype								
Cc1sc2c(c1C)C(c1ccc(Cl)cc1)=N[C@@H](CC(=O)Nc1ccc(O)cc1)c1nnc(C)n1-2 [MK-8628]		1390	1390	813	812	reduced	reduced	did not negatively impact	no increase in progression-free survival
